Data from patent publication US8202507B2, “Assay for vitamin B12 absorption and method of making labeled vitamin B12” (The Regents of the University of California, priority 2004, dated 2012).

What was measured:
[1] = cited from earlier work
[2] = AMS assay of B12 absorption in a normal human subject after oral ^14C-vitamin B12; type: in vivo; conditions: for total of oral dose recovered in urine and feces: seven days post-dose, cumulative urine and stool; for delay in the appearance of the label in plasma: plasma by AMS
Protocol: This example describes the use of this labeled B12 and AMS to assay B12 absorption in a normal human subject. A single 1.5 μg dose of the ^14C-vitamin B12 was administered orally and detected by AMS as it appeared in the bloodstream.
The subject was a healthy person with a body mass index (BMI) of 27.5. The subject began complete fecal and urine collection 24 h in advance of the dose and continued complete 24 h collections until Day 7. On the day of dose administration, the subject was fitted with an intravenous catheter in a forearm vein. Blood was drawn into 7 mL tubes containing EDTA. A baseline blood sample was drawn (7 AM) and the dose consumed that corresponded to 2.2 KBq of radioactivity (1.5 μg) was administered in 50 mL of drinking water in a paper cup. The volunteer was allowed to have water ad libitum thereafter, with a light meal taken 2 hr postdose. Blood samples were drawn at frequent intervals for the first 15 hr post-dose and daily thereafter. Meals were controlled for time and content on the dose administration day.
AMS analysis. Aliquots of plasma (30 μL), urine (80 μL) and a stool slurry (80 μL) were dried, combusted to CO2, and reduced to filamentous carbon using known procedures. No other processing preceded the graphization step, thus quantitative recovery was ensured. The ^14C measurements were performed at the Center for Accelerator Mass Spectrometry at Lawrence Livermore National Laboratory. Measurements were conducted to <3% instrument imprecision and, in general, signal acquisition was complete to the desired statistical precision in 3-5 min per sample. The radiation exposure of the subject, due to the ^14C-B12 dose, was equivalent or less than exposure due to 10 hours of intercontinental plane flight.

Row | total of oral dose recovered in urine and feces [2] [%] | total of oral dose recovered in urine and feces ([2]; listed as 14C) [%] | share of the quantified output accounted for ([2]; seventy-two hours post-dose, urine and feces) [%] | delay in the appearance of the label in plasma ([2]; single 1.5 μg oral dose) | delay in the appearance of the label in plasma ([2]; single 1.5 μg oral dose, listed as 14C from the labeled vitamin B12) | peak circulating ^14C-B12 as percent of the administered dose ([2]; single 1.5 μg oral dose, plasma, at peak after seven hours) | label in the twenty-four hour urine collection ([2]; single 1.5 μg oral dose, urine, no flushing dose) | Substance | solubility in water ([1]; 25° C.) [%] | solubility in acetone, chloroform and ether [1] | solubility in alcohol and phenol [1]
1 |  |  |  |  |  |  |  | Cyanocobalamin | 1.2 | insoluble | soluble
2 | 15.8 | 15.9 | 99 | two to three | three | less than three | 6.8 % of administered dose | ^14C-cyanocobalamin [^14C-vitamin B12] |  |  | 
